Assay results: US6723837B1, “Nucleic acid molecule and encoded protein associated with sterol synthesis and metabolism” (Monsanto Technology LLC, priority 1999, dated 2004)

Tested on: wild type yeast LPY9
Test: RNA abundance on yeast ORF array after ketoconazole treatment vs control without ketoconazole
Format: cell-based
Details: LPY9, 2 hr, vs untreated LPY9
Protocol: The yeast strain LPY9 (MATa, leu2, Ura3, his3) is grown overnight and inoculated into SD+ hul (histidine, uracil, leucine) media. Aliquots of the culture are treated with ketoconazole (an inhibitor of C-14α demethylase (P45014DM) enzyme) at 10 ug/ml, 50 ug/ml, and 100 ug/ml, corresponding to 10 ppm, 50 ppm, and 100 ppm, respectively. A sample of each is collected at 2, 4, and 6 hours after treatment. Control samples treated with DMSO (dimethyl sulfoxide-solvent for ketoconazole) but not with ketoconazole are also collected. Total RNA from each sample is collected by conventional methods, such as a Zirconium/Silica bead binding and extraction method. The sequence content of each sample is analyzed and compared by hybridizing each of them to a number of yeast ORF sequences immobilized on a Nylon membrane in an array format.
Table 2, below, lists the RNAs in each sample whose abundance is effected by ketoconazole treatment or whose abundance differs between wild type and the double mutant strain. The table also lists the corresponding gene or sequence identifier for those RNAs. The RNAs are ranked by the ratio of either ketocanozole vs. control or mutant vs. control, using the ratio of 50 ppm ketocanozole/control as a basis for comparison.

Structure (SMILES): CC(=O)N1CCN(c2ccc(OCC3COC(Cn4ccnc4)(c4ccc(Cl)cc4Cl)O3)cc2)CC1 (centres unmarked) [ketoconazole]
- K-50/CK expression level ratio: YAL001C (TFC3) (50 micro gram/ml): 0.4743
- K-50/CK expression level ratio: YAL013W (DEP1) (50 micro gram/ml): 5.546
- K-50/CK expression level ratio: YAL048C (50 micro gram/ml): 2.138
- K-50/CK expression level ratio: YAR044W (OSH1) (50 micro gram/ml): 3.625
- K-50/CK expression level ratio: YBL005W (PDR3) (50 micro gram/ml): 4.145
- K-50/CK expression level ratio: YBL008W (HIR1) (50 micro gram/ml): 2.828
- K-50/CK expression level ratio: YBR119W (MUD1) (50 micro gram/ml): 2.405
- K-50/CK expression level ratio: YBR289W (SNF5) (50 micro gram/ml): 2.688
- K-50/CK expression level ratio: YCL037C (SRO9) (50 micro gram/ml): 2.786
- K-50/CK expression level ratio: YCR048W (ARE1) (50 micro gram/ml): 6.104
- K-50/CK expression level ratio: YCR084C (TUP1) (50 micro gram/ml): 2.922
- K-50/CK expression level ratio: YDL088C (ASM4) (50 micro gram/ml): 4.176
- K-50/CK expression level ratio: YDR052C (DBF4) (50 micro gram/ml): 2.404
- K-50/CK expression level ratio: YDR088C (SLU7) (50 micro gram/ml): 2.734
- K-50/CK expression level ratio: YDR211W (GCD6) (50 micro gram/ml): 2.484
- K-50/CK expression level ratio: YDR213W (50 micro gram/ml): 32.14
- K-50/CK expression level ratio: YDR253C (MET32) (50 micro gram/ml): 0.3397
- K-50/CK expression level ratio: YDR264C (AKR1) (50 micro gram/ml): 2.198
- K-50/CK expression level ratio: YDR389W (SAC7) (50 micro gram/ml): 4.561
- K-50/CK expression level ratio: YDR422C (SIP1) (50 micro gram/ml): 2.187
- K-50/CK expression level ratio: YFL054C (50 micro gram/ml): 0.4794
- K-50/CK expression level ratio: YFR009W (GCN20) (50 micro gram/ml): 2.486
- K-50/CK expression level ratio: YFR034C (PHO4) (50 micro gram/ml): 11.22
- K-50/CK expression level ratio: YGL001C (50 micro gram/ml): 2.821
- K-50/CK expression level ratio: YGL014W (50 micro gram/ml): 3.229
- K-50/CK expression level ratio: YGL071W (RCS1) (50 micro gram/ml): 3.696
- K-50/CK expression level ratio: YGL112C (TAF60) (50 micro gram/ml): 2.077
- K-50/CK expression level ratio: YGL192W (IME4) (50 micro gram/ml): 3.17
- K-50/CK expression level ratio: YGR177C (ATF2) (50 micro gram/ml): 11.83
- K-50/CK expression level ratio: YGR270W (YTA7) (50 micro gram/ml): 2.406
- K-50/CK expression level ratio: YHL027W (RIM101) (50 micro gram/ml): 2.103
- K-50/CK expression level ratio: YIL084C (SDS3) (50 micro gram/ml): 5.543
- K-50/CK expression level ratio: YIR017C (MET28) (50 micro gram/ml): 0.3775
- K-50/CK expression level ratio: YJL127C (SPT10) (50 micro gram/ml): 7.839
- K-50/CK expression level ratio: YJR017C (ESS1) (50 micro gram/ml): 3.559
- K-50/CK expression level ratio: YJR019C (TES1) (50 micro gram/ml): 2.83
- K-50/CK expression level ratio: YKR034W (DAL80) (50 micro gram/ml): 5.044
- K-50/CK expression level ratio: YLR098C (CHA4) (50 micro gram/ml): 4.756
- K-50/CK expression level ratio: YLR120C (YAP3) (50 micro gram/ml): 3.623
- K-50/CK expression level ratio: YLR153C (ACS2) (50 micro gram/ml): 3.379
- K-50/CK expression level ratio: YLR249W (YEF3) (50 micro gram/ml): 3.145
- K-50/CK expression level ratio: YMR019W (STB4) (50 micro gram/ml): 3.441
- K-50/CK expression level ratio: YMR037C (MSN2) (50 micro gram/ml): 6.424
- K-50/CK expression level ratio: YMR047C (NUP116) (50 micro gram/ml): 3.17
- K-50/CK expression level ratio: YMR080C (NAM7) (50 micro gram/ml): 2.183
- K-50/CK expression level ratio: YMR146C (TIF34) (50 micro gram/ml): 0.2248
- K-50/CK expression level ratio: YNR019W (ARE2) (50 micro gram/ml): 1.791
- K-50/CK expression level ratio: YOL067C (RTG1) (50 micro gram/ml): 10.03
- K-50/CK expression level ratio: YOR127W (RGA1) (50 micro gram/ml): 2.532
- K-50/CK expression level ratio: YOR237W (HES1) (50 micro gram/ml): 1418
- K-50/CK expression level ratio: YOR337W (TEA1) (50 micro gram/ml): 2.979
- K-50/CK expression level ratio: YPL028W (ERG10) (50 micro gram/ml): 2.019
- K-50/CK expression level ratio: YPL119C (DBP1) (50 micro gram/ml): 3.246
- K-50/CK expression level ratio: YPL226W (50 micro gram/ml): 2.889
- K-50/CK expression level ratio: YPL237W (SUI3) (50 micro gram/ml): 2.563
- K-50/CK expression level ratio: YPR080W (TEF1) (50 micro gram/ml): 2.212
- K-100/CK expression level ratio: YAL001C (TFC3) (100 micro gram/ml): 1.192
- K-100/CK expression level ratio: YAL013W (DEP1) (100 micro gram/ml): 6.425
- K-100/CK expression level ratio: YAL048C (100 micro gram/ml): 4.221
- K-100/CK expression level ratio: YAR044W (OSH1) (100 micro gram/ml): 3.884
- K-100/CK expression level ratio: YBL005W (PDR3) (100 micro gram/ml): 6.083
- K-100/CK expression level ratio: YBL008W (HIR1) (100 micro gram/ml): 2.887
- K-100/CK expression level ratio: YBR119W (MUD1) (100 micro gram/ml): 1.399
- K-100/CK expression level ratio: YBR289W (SNF5) (100 micro gram/ml): 3.039
- K-100/CK expression level ratio: YCL037C (SRO9) (100 micro gram/ml): 2.394
- K-100/CK expression level ratio: YCR048W (ARE1) (100 micro gram/ml): 10.53
- K-100/CK expression level ratio: YCR084C (TUP1) (100 micro gram/ml): 3.272
- K-100/CK expression level ratio: YDL088C (ASM4) (100 micro gram/ml): 3.321
- K-100/CK expression level ratio: YDR052C (DBF4) (100 micro gram/ml): 1.583
- K-100/CK expression level ratio: YDR088C (SLU7) (100 micro gram/ml): 2.688
- K-100/CK expression level ratio: YDR211W (GCD6) (100 micro gram/ml): 1.824
- K-100/CK expression level ratio: YDR213W (100 micro gram/ml): 58.36
- K-100/CK expression level ratio: YDR253C (MET32) (100 micro gram/ml): 0.3279
- K-100/CK expression level ratio: YDR264C (AKR1) (100 micro gram/ml): 2.752
- K-100/CK expression level ratio: YDR389W (SAC7) (100 micro gram/ml): 4.314
- K-100/CK expression level ratio: YDR422C (SIP1) (100 micro gram/ml): 2.084
- K-100/CK expression level ratio: YFL054C (100 micro gram/ml): 0.6137
- K-100/CK expression level ratio: YFR009W (GCN20) (100 micro gram/ml): 2.161
- K-100/CK expression level ratio: YFR034C (PHO4) (100 micro gram/ml): 20.84
- K-100/CK expression level ratio: YGL001C (100 micro gram/ml): 1.985
- K-100/CK expression level ratio: YGL014W (100 micro gram/ml): 3.638
- K-100/CK expression level ratio: YGL071W (RCS1) (100 micro gram/ml): 4.531
- K-100/CK expression level ratio: YGL112C (TAF60) (100 micro gram/ml): 2.189
- K-100/CK expression level ratio: YGL192W (IME4) (100 micro gram/ml): 6.478
- K-100/CK expression level ratio: YGR177C (ATF2) (100 micro gram/ml): 12.56
- K-100/CK expression level ratio: YGR270W (YTA7) (100 micro gram/ml): 1.946
- K-100/CK expression level ratio: YHL027W (RIM101) (100 micro gram/ml): 2.593
- K-100/CK expression level ratio: YIL084C (SDS3) (100 micro gram/ml): 6.907
- K-100/CK expression level ratio: YIR017C (MET28) (100 micro gram/ml): 0.3009
- K-100/CK expression level ratio: YJL127C (SPT10) (100 micro gram/ml): 10.1
- K-100/CK expression level ratio: YJR017C (ESS1) (100 micro gram/ml): 3.221
- K-100/CK expression level ratio: YJR019C (TES1) (100 micro gram/ml): 2.072
- K-100/CK expression level ratio: YKR034W (DAL80) (100 micro gram/ml): 7.284
- K-100/CK expression level ratio: YLR098C (CHA4) (100 micro gram/ml): 5.587
- K-100/CK expression level ratio: YLR120C (YAP3) (100 micro gram/ml): 4.43
- K-100/CK expression level ratio: YLR153C (ACS2) (100 micro gram/ml): 3.129
- K-100/CK expression level ratio: YLR249W (YEF3) (100 micro gram/ml): 2.632
- K-100/CK expression level ratio: YMR019W (STB4) (100 micro gram/ml): 3.398
- K-100/CK expression level ratio: YMR037C (MSN2) (100 micro gram/ml): 7.661
- K-100/CK expression level ratio: YMR047C (NUP116) (100 micro gram/ml): 4.774
- K-100/CK expression level ratio: YMR080C (NAM7) (100 micro gram/ml): 2.171
- K-100/CK expression level ratio: YMR146C (TIF34) (100 micro gram/ml): 0.7194
- K-100/CK expression level ratio: YNR019W (ARE2) (100 micro gram/ml): 2.854
- K-100/CK expression level ratio: YOL067C (RTG1) (100 micro gram/ml): 27.37
- K-100/CK expression level ratio: YOR127W (RGA1) (100 micro gram/ml): 2.57
- K-100/CK expression level ratio: YOR139C (SFL1) (100 micro gram/ml): 11.76
- K-100/CK expression level ratio: YOR237W (HES1) (100 micro gram/ml): 1358
- K-100/CK expression level ratio: YOR337W (TEA1) (100 micro gram/ml): 4.823
- K-100/CK expression level ratio: YPL028W (ERG10) (100 micro gram/ml): 1.699
- K-100/CK expression level ratio: YPL119C (DBP1) (100 micro gram/ml): 2.197
- K-100/CK expression level ratio: YPL226W (100 micro gram/ml): 2.556
- K-100/CK expression level ratio: YPL237W (SUI3) (100 micro gram/ml): 2.548
- K-100/CK expression level ratio: YPR080W (TEF1) (100 micro gram/ml): 1.859
